# According to US4713374A, “Ganglioside derivatives” (priority 1984, dated 1987):
# Test system: PC12 cells
# Assay: Neurite sprouting in PC12 cells
# Type: cell-based
# Conditions: 10^-6 M, serum-free vehicle with 50 ng/ml NGF, third day; controls 21.5
# Protocol: The cells are then washed three times in a serum-free vehicle. […] This effect is evaluated by counting the number of cells with neurites at the third day.
row,SMILES,% of the no. of cells with neurites at 3rd day [%]
1,"CCCCCCCCCCCCC/C=C/[C@@H](O)[C@H](CO[C@@H]1O[C@H](CO)[C@@H](O[C@@H]2O[C@H](CO)[C@H](O[C@@H]3O[C@H](CO)[C@H](O)[C@H](O[C@@H]4O[C@H](CO)[C@H](O)[C@H](O)[C@H]4O)[C@H]3NC(C)=O)[C@H](O[C@]3(C(=O)NCCCN(C)C)C[C@H](O)[C@@H](NC(C)=O)[C@H]([C@H](O)[C@H](O)CO)O3)[C@H]2O)[C@H](O)[C@H]1O)NC(=O)CCCCCCCCCCCCCCCCC [3-dimethylaminopropyl-1-amide of GM1, 3-dimethylaminopropyl-1-amide of the ganglioside GM1]",37.3
2,"CCCCCCCCCCCCC/C=C/[C@@H](O)[C@H](CO[C@@H]1O[C@H](CO)[C@@H](O[C@@H]2O[C@H](CO)[C@H](O[C@@H]3O[C@H](CO)[C@H](O)[C@H](O[C@@H]4O[C@H](CO)[C@H](O)[C@H](O)[C@H]4O)[C@H]3NC(C)=O)[C@H](O[C@]3(C(=O)NC(C)C)C[C@H](O)[C@@H](NC(C)=O)[C@H]([C@H](O)[C@H](O)CO)O3)[C@H]2O)[C@H](O)[C@H]1O)NC(=O)CCCCCCCCCCCCCCCCC [Isopropylamide of GM1, Isopropylamide of the ganglioside GM1]",31.4
3,"CCCCCCCCCCCCC/C=C/[C@@H](O)[C@H](CO[C@@H]1O[C@H](CO)[C@@H](O[C@@H]2O[C@H](CO)[C@H](O[C@@H]3O[C@H](CO)[C@H](O)[C@H](O[C@@H]4O[C@H](CO)[C@H](O)[C@H](O)[C@H]4O)[C@H]3NC(C)=O)[C@H](O[C@]3(C(=O)OCC(=O)OCC)C[C@H](O)[C@@H](NC(C)=O)[C@H]([C@H](O)[C@H](O)CO)O3)[C@H]2O)[C@H](O)[C@H]1O)NC(=O)CCCCCCCCCCCCCCCCC [Etoxycarbonylmethylic ester of GM1, Ethoxycarbonylmethyl ester of the ganglioside GM1]",27.3
4,"CCCCCCCCCCCCC/C=C/[C@@H](O)[C@H](CO[C@@H]1O[C@H](CO)[C@@H](O[C@@H]2O[C@H](CO)[C@H](O[C@@H]3O[C@H](CO)[C@H](O)[C@H](O[C@@H]4O[C@H](CO)[C@H](O)[C@H](O)[C@H]4O)[C@H]3NC(C)=O)[C@H](O[C@]3(C(=O)OCc4ccccc4)C[C@H](O)[C@@H](NC(C)=O)[C@H]([C@H](O)[C@H](O)CO)O3)[C@H]2O)[C@H](O)[C@H]1O)NC(=O)CCCCCCCCCCCCCCCCC [Benzylic ester of GM1, Benzyl ester of the ganglioside GM1]",28.3
5,"CCCCCCCCCCCCC/C=C/[C@@H](OC(C)=O)[C@H](CO[C@@H]1O[C@H](COC(C)=O)[C@@H](O[C@@H]2O[C@H](COC(C)=O)[C@H](O[C@@H]3O[C@H](COC(C)=O)[C@H](OC(C)=O)[C@H](O[C@@H]4O[C@H](COC(C)=O)[C@H](OC(C)=O)[C@H](OC(C)=O)[C@H]4OC(C)=O)[C@H]3NC(C)=O)[C@H](O[C@]3(C(=O)OC)C[C@H](OC(C)=O)[C@@H](NC(C)=O)[C@H]([C@H](OC(C)=O)[C@@H](COC(C)=O)OC(C)=O)O3)[C@H]2OC(C)=O)[C@H](OC(C)=O)[C@H]1OC(C)=O)NC(=O)CCCCCCCCCCCCCCCCC [Methylic ester of peracetylated GM1, Peracetylated derivative of the methyl ester of the ganglioside GM1]",29.4
6,"CCCCCCCCCCCCC/C=C/[C@@H](O)[C@H](CO[C@@H]1O[C@H](CO)[C@@H](O[C@@H]2O[C@H](CO)[C@H](O[C@@H]3O[C@H](CO)[C@H](O)[C@H](O[C@@H]4O[C@H](CO)[C@H](O)[C@H](O)[C@H]4O)[C@H]3NC(C)=O)[C@H](O[C@]3(C(=O)NCCCCCCO)C[C@H](O)[C@@H](NC(C)=O)[C@H]([C@H](O)[C@H](O)CO)O3)[C@H]2O)[C@H](O)[C@H]1O)NC(=O)CCCCCCCCCCCCCCCCC [6-hydroxyhexyl-1-amide of GM1, 6-hydroxyhexyl-1-amide of the ganglioside GM1]",36.4
7,"CCCCCCCCCCCCC/C=C/[C@@H](O)[C@H](CO[C@@H]1O[C@H](CO)[C@@H](O[C@@H]2O[C@H](CO)[C@H](O[C@@H]3O[C@H](CO)[C@H](O)[C@H](O[C@@H]4O[C@H](CO)[C@H](O)[C@H](O)[C@H]4O)[C@H]3NC(C)=O)[C@H](O[C@]3(C(=O)NCCN(C)C)C[C@H](O)[C@@H](NC(C)=O)[C@H]([C@H](O)[C@H](O)CO)O3)[C@H]2O)[C@H](O)[C@H]1O)NC(=O)CCCCCCCCCCCCCCCCC [Dimethylaminoethylamide of GM1, Dimethylaminoethylamide of the ganglioside GM1]",34.8
8,"CCCCCCCCCCCCC/C=C/[C@@H](O)[C@H](CO[C@@H]1O[C@H](CO)[C@@H](O[C@@H]2O[C@H](CO)[C@H](O[C@@H]3O[C@H](CO)[C@H](O)[C@H](O[C@@H]4O[C@H](CO)[C@H](O)[C@H](O)[C@H]4O)[C@H]3NC(C)=O)[C@H](O[C@]3(C(=O)NCCO)C[C@H](O)[C@@H](NC(C)=O)[C@H]([C@H](O)[C@H](O)CO)O3)[C@H]2O)[C@H](O)[C@H]1O)NC(=O)CCCCCCCCCCCCCCCCC [Ethanolamide of GM1, Ethanolamide of the ganglioside GM1]",41.2
9,"CCCCCCCCCCCCC/C=C/[C@@H](O)[C@H](CO[C@@H]1O[C@H](CO)[C@@H](O[C@@H]2O[C@H](CO)[C@H](O[C@@H]3O[C@H](CO)[C@H](O)[C@H](O[C@@H]4O[C@H](CO)[C@H](O)[C@H](O)[C@H]4O)[C@H]3NC(C)=O)[C@H](O[C@]3(C(=O)OCC)C[C@H](O)[C@@H](NC(C)=O)[C@H]([C@H](O)[C@H](O)CO)O3)[C@H]2O)[C@H](O)[C@H]1O)NC(=O)CCCCCCCCCCCCCCCCC [Ethylic ester of GM1, Ethyl ester of the ganglioside GM1]",37.1
10,"CCCCCCCCCCCCC/C=C/[C@@H](O)[C@H](CO[C@@H]1O[C@H](CO)[C@@H](O[C@@H]2O[C@H](CO)[C@H](O[C@@H]3O[C@H](CO)[C@H](O)[C@H](O[C@@H]4O[C@H](CO)[C@H](O)[C@H](O)[C@H]4O)[C@H]3NC(C)=O)[C@H](O[C@]3(C(=O)OC(C)(C)C)C[C@H](O)[C@@H](NC(C)=O)[C@H]([C@H](O)[C@H](O)CO)O3)[C@H]2O)[C@H](O)[C@H]1O)NC(=O)CCCCCCCCCCCCCCCCC [Tertiarbutylic ester of GM1, Tertiary butyl ester of the ganglioside GM1]",32.3
11,"CCCCCCCCCCCCC/C=C/[C@@H](OC(C)=O)[C@H](CO[C@@H]1O[C@H](COC(C)=O)[C@@H](O[C@@H]2O[C@H](COC(C)=O)[C@H](O[C@@H]3O[C@H](COC(C)=O)[C@H](OC(C)=O)[C@H](O[C@@H]4O[C@H](COC(C)=O)[C@H](OC(C)=O)[C@H](OC(C)=O)[C@H]4OC(C)=O)[C@H]3NC(C)=O)[C@H](O[C@]3(C(=O)O)C[C@H](OC(C)=O)[C@@H](NC(C)=O)[C@H]([C@H](OC(C)=O)[C@@H](COC(C)=O)OC(C)=O)O3)[C@H]2OC(C)=O)[C@H](OC(C)=O)[C@H]1OC(C)=O)NC(=O)CCCCCCCCCCCCCCCCC [Peracetylated GM1, Peracetylated derivative of the ganglioside GM1]",30.2
12,"CCCCCCCCCCCCC/C=C/[C@@H](O)[C@H](CO[C@@H]1O[C@H](CO)[C@@H](O[C@@H]2O[C@H](CO)[C@H](O[C@@H]3O[C@H](CO)[C@H](O)[C@H](O[C@@H]4O[C@H](CO)[C@H](O)[C@H](O)[C@H]4O)[C@H]3NC(C)=O)[C@H](O[C@]3(C(=O)NCc4ccccc4)C[C@H](O)[C@@H](NC(C)=O)[C@H]([C@H](O)[C@H](O)CO)O3)[C@H]2O)[C@H](O)[C@H]1O)NC(=O)CCCCCCCCCCCCCCCCC [Benzylamide of GM1, Benzylamide of the ganglioside GM1]",30.8
13,"CCCCCCCCCCCCC/C=C/[C@@H](O)[C@H](CO[C@@H]1O[C@H](CO)[C@@H](O[C@@H]2O[C@H](CO)[C@H](O[C@@H]3O[C@H](CO)[C@H](O)[C@H](O[C@@H]4O[C@H](CO)[C@H](O)[C@H](O)[C@H]4O)[C@H]3NC(C)=O)[C@H](O[C@]3(C(=O)N(C)CC)C[C@H](O)[C@@H](NC(C)=O)[C@H]([C@H](O)[C@H](O)CO)O3)[C@H]2O)[C@H](O)[C@H]1O)NC(=O)CCCCCCCCCCCCCCCCC [Ethylmethylamide of GM1, Ethylmethylamide of the ganglioside GM1]",35.3
14,"CCCCCCCCCCCCC/C=C/[C@@H](O)[C@H](CO[C@@H]1O[C@H](CO)[C@@H](O[C@@H]2O[C@H](CO)[C@H](O[C@@H]3O[C@H](CO)[C@H](O)[C@H](O[C@@H]4O[C@H](CO)[C@H](O)[C@H](O)[C@H]4O)[C@H]3NC(C)=O)[C@H](O[C@]3(C(=O)N(CC)CC)C[C@H](O)[C@@H](NC(C)=O)[C@H]([C@H](O)[C@H](O)CO)O3)[C@H]2O)[C@H](O)[C@H]1O)NC(=O)CCCCCCCCCCCCCCCCC [Diethylamide of GM1, Diethylamide of the ganglioside GM1]",28.5
15,"C=CCOC(=O)[C@@]1(O[C@@H]2[C@@H](O)[C@H](O[C@H]3[C@H](O)[C@@H](O)[C@H](OC[C@H](NC(=O)CCCCCCCCCCCCCCCCC)[C@H](O)/C=C/CCCCCCCCCCCCC)O[C@@H]3CO)O[C@H](CO)[C@@H]2O[C@@H]2O[C@H](CO)[C@H](O)[C@H](O[C@@H]3O[C@H](CO)[C@H](O)[C@H](O)[C@H]3O)[C@H]2NC(C)=O)C[C@H](O)[C@@H](NC(C)=O)[C@H]([C@H](O)[C@H](O)CO)O1 [Allylic ester of GM1, Allyl ester of the ganglioside GM1]",31.5
16,"CCCCCCCCCCCCC/C=C/[C@@H](OC(C)=O)[C@H](CO[C@@H]1O[C@H](COC(C)=O)[C@@H](O[C@@H]2O[C@H](COC(C)=O)[C@H](O[C@@H]3O[C@H](COC(C)=O)[C@H](OC(C)=O)[C@H](O[C@@H]4O[C@H](COC(C)=O)[C@H](OC(C)=O)[C@H](OC(C)=O)[C@H]4OC(C)=O)[C@H]3NC(C)=O)[C@H](O[C@]3(C(N)=O)C[C@H](OC(C)=O)[C@@H](NC(C)=O)[C@H]([C@H](OC(C)=O)[C@@H](COC(C)=O)OC(C)=O)O3)[C@H]2OC(C)=O)[C@H](OC(C)=O)[C@H]1OC(C)=O)NC(=O)CCCCCCCCCCCCCCCCC [Amide of peracetylated GM1, Peracetylated derivative of the amide of the ganglioside GM1]",31.4
